This note sets out measurements from ChEMBL document CHEMBL4402523, “2-Aminomethylene-5-sulfonylthiazole Inhibitors of Lysyl Oxidase (LOX) and LOXL2 Show Significant Efficacy in Delaying Tumor Growth” (J Med Chem, 2020).

Calls of active or inactive are those of the source. The calls are words filed in the database; no cut-off is given here.

Data set [1] in a line: Inhibition of pig skin-derived LOX using cadaverine hydrochloride as substrate preincubated for 1 hr followed by substrate addition by ROS-Glo assay. Set-up: species or system Sus scrofa.
A short description of data set [2]: Stability in CD1 mouse liver microsomes assessed as parent compound remaining at 10 uM measured after 30 mins by LC-MS/MS analysis. It is filed as ADME, Microsome. The following applies: read-out: Stability.
Data set [3] addresses T1, Lysyl oxidase homolog 2 (Homo sapiens) (UniProt Q9Y4K0).
T1 sequence (whole entry): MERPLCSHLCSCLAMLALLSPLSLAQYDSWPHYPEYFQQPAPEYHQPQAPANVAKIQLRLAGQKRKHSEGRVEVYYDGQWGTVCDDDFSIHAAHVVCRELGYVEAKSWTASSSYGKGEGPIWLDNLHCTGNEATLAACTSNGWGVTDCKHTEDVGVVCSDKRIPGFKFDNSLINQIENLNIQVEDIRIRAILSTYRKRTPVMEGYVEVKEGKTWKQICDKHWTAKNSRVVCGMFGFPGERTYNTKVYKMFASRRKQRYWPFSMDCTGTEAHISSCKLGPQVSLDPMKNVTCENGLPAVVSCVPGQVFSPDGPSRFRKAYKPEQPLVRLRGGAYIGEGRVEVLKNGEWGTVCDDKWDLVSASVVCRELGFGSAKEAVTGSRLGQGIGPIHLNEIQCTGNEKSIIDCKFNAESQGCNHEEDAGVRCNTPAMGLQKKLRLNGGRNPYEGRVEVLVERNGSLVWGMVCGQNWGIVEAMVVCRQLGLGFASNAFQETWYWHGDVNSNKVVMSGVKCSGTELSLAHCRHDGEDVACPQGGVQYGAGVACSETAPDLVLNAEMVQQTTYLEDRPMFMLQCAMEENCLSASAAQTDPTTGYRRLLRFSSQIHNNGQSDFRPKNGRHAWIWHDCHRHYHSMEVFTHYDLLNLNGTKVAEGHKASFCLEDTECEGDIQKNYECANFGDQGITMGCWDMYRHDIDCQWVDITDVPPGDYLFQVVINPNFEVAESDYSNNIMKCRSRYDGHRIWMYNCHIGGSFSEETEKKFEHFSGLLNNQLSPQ
The data set can be described thus: Reversible inhibition of human C-terminal His10-tagged LOXL2 (Met1 to Gln774 residues) expressed in mouse NS0 cells assessed as enzyme residual activity at 10 times IC50 using cadaverine hydrochloride as substrate preincubated for 1 hr followed by 100-fold enzyme-compound mixture dilution in …. Type of data set: cell-based.

Data set [4] in a line: Toxicity in MMTV-PyMT mouse breast cancer model assessed as change in body weight at 70 mg/kg, po administered once daily via gavage for 34 days. It is filed as organism-based. To be noted: in vivo, 816 h.
A short description of data set [5]: Stability in Sprague-Dawley rat liver microsomes assessed as parent compound remaining at 10 uM measured after 30 mins by LC-MS/MS analysis. It is filed as ADME, Microsome. The following applies: read-out: Stability. Background: Liver microsomes are vesicles of endoplasmic reticulum, rich in cytochrome P450 enzymes.
Data set [6] in a line: Toxicity in MMTV-PyMT mouse breast cancer model assessed as death at 70 mg/kg, po administered once daily via gavage for 34 days. It is filed as organism-based. The following applies: in vivo, 816 h.
A further data set relates to Mus musculus. The data set can be described thus: Antitumor activity against MMTV-PyMT mouse breast cancer model assessed as reduction in tumor growth at 70 mg/kg, po administered once daily via gavage for 34 days measured twice a week during compound dosing. Type of data set: functional, organism-based.

A word on the IC50: it is the point on the concentration scale where inhibition reaches its midpoint. Lower therefore signals higher potency. With `Cn1cc(-c2cc(S(C)(=O)=O)cc(S(=O)(=O)c3csc(CN)n3)c2)cn1`, in data set [1], the IC50 is > 100 µM.

`CS(=O)(=O)c1cc(-c2ccccc2)cc(S(=O)(=O)c2ccc(CN)s2)c1`: the remaining at 0.5 h, 10 µM in data set [2] was found to be 64%. Besides, the Activity in data set [3] came out at 80%. In data set [1], `Cn1cc(-c2cc(S(C)(=O)=O)cc(S(=O)(=O)c3cnc(CN)s3)c2)cn1` gave an IC50 of 2.65 to 3.42 µM. The same measure, in the same setting: as for `CS(=O)(=O)c1cc(-c2ccccc2)cc(-c2cnc(CN)s2)c1`, the figure is 46.5 to 52 µM. Still for that read-out and setting: as for `CS(=O)(=O)c1cc(Sc2cnc(CN)s2)cc(-c2ccccc2)c1`, the figure is 1.13 to 1.31 µM. In the case of `CCc1cc(-c2cnn(C)c2)cc(S(=O)(=O)c2cnc(CN)s2)c1`, the figures for the Activity result in data set [4], in data set [6] and in data set [3] were “Non-Toxic”, “Non-Toxic” and 30%, respectively. Besides, the remaining at 0.5 h, 10 µM in data set [5] stood at 82%; in data set [2], 76%. Moreover, the result in the data set on Mus musculus was Active. As to `CS(=O)(=O)c1cc(-c2ccccc2)cc(S(=O)(=O)c2csc(CN)n2)c1`, the IC50 in data set [1] was > 100 µM.
